Experimental findings from patent US6962933B1, “Method for inhibiting p38 MAP kinase or TNF-α production using a 1,3-thiazole” (Takeda Pharmaceutical Company Limited, priority 1999, dated 2005) are described below.

`COc1ccc(-c2nc(NC(=O)c3ccc(C(=O)O)cc3)sc2-c2ccncc2)cc1` [Reference Example 23-299, 4-[[[4-(4-methoxyphenyl)-5-(4-pyridyl)-1,3-thiazol-2-yl]amino]carbonyl]benzoic acid] returned a melting point of 332 to 335 °C. Next, `Nc1nc(-c2ccccc2)c(-c2ccncc2)s1` [Reference Example 13-15, [4-phenyl-5-(4-pyridyl)-1,3-thiazol-2-yl]amine]: 248 to 250 °C; `Cc1cc(C)cc(-c2nc(NCc3ccccc3)sc2-c2ccncc2)c1` [Reference Example 23-281, N-benzyl-[4-(3,5-dimethylphenyl)-5-(4-pyridyl)-1,3-thiazol-2-yl]amine]: 186 to 188 °C; `COc1ccc(-c2nc(NC(=O)c3ccncc3)sc2-c2ccncc2)cc1` [Reference Example 23-102, N-[4-(4-methoxyphenyl)-5-(4-pyridyl)-1,3-thiazol-2-yl]isonicotinamide]: 295 to 297 °C. `COc1ccc(-c2nc(Nc3ccccc3)sc2-c2ccncc2)cc1` [Reference Example 23-80, N-phenyl-[4-(4-methoxyphenyl)-5-(4-pyridyl)-1,3-thiazol-2-yl]amine] gave a melting point of 287 to 289 °C. Next, `COc1ccc(-c2nc(NC(=O)c3cccnc3)sc2-c2ccncc2)cc1` [Reference Example 23-101, N-[4-(4-methoxyphenyl)-5-(4-pyridyl)-1,3-thiazol-2-yl]nicotinamide]: 278 to 281 °C. For `CSc1ccc(-c2nc(-c3cccc(C)c3)c(-c3ccncc3)s2)cc1` [Reference Example 44-7, methyl 4-[4-(3-methylphenyl)-5-(4-pyridyl)-1,3-thiazol-2-yl]phenylsulfide], the melting point is 101 to 102 °C. The compound `CC(=O)Nc1nc(-c2ccccc2)c(-c2ccncc2)s1` [Reference Example 23-71, N-[4-phenyl-5-(4-pyridyl)-1,3-thiazol-2-yl]acetamide] showed a melting point of 294 to 297 °C. Then `Cc1ccc(-c2nc(N)sc2-c2ccncc2)cc1` [Reference Example 23-62, [4-(4-methylphenyl)-5-(4-pyridyl)-1,3-thiazol-2-yl]amine], with 296 to 298 °C; and `Cc1cccc(-c2nc(-c3ccc([S+](C)[O-])cc3)sc2-c2ccncc2)c1` (centres unmarked) [Reference Example 44-8, methyl 4-[4-(3-methylphenyl)-5-(4-pyridyl)-1,3-thiazol-2-yl]phenylsulfoxide], with 188 to 189 °C; and `Cc1cc(C)cc(-c2nc(NC(=O)c3ccncc3)sc2-c2ccncc2)c1` [Reference Example 23-200, N-[4-(3,5-dimethylphenyl)-5-(4-pyridyl)-1,3-thiazol-2-yl]isonicotinamide], with 302 to 304 °C. Then `CCCCNc1nc(-c2cc(C)cc(C)c2)c(-c2ccncc2)s1` [Reference Example 23-280, N-butyl-[4-(3,5-dimethylphenyl)-5-(4-pyridyl)-1,3-thiazol-2-yl]amine], with 165 to 168 °C; and `O=S(=O)(Cc1ccc(-c2nc(-c3ccc(F)cc3)c(-c3ccncc3)s2)cc1)Cc1ccc(-c2nc(-c3ccc(F)cc3)c(-c3ccncc3)s2)cc1` [Reference Example 23-313, 4-[4-(4-fluorophenyl)-5-(4-pyridyl)-1,3-thiazol-2-yl]phenylmethylsulfone], with 191 to 194 °C. Then `CC(=O)Nc1nc(-c2cccc(Cl)c2)c(-c2ccncc2)s1` [Reference Example 23-49, N-[4-(3-chlorophenyl)-5-(4-pyridyl)-1,3-thiazol-2-yl]acetamide], with 290 to 293 °C. `COc1ccc(-c2nc(N)sc2-c2ccncc2)cc1` [Reference Example 13-14, [4-(4-methoxyphenyl)-5-(4-pyridyl)-1,3-thiazol-2-yl]amine] came in with a melting point of 282 to 284 °C. As for `CNc1nc(-c2ccc(Br)cc2)c(-c2ccncc2)s1` [Reference Example 13-71, N-methyl [4-(4-bromophenyl)-5-(4-pyridyl)-1,3-thiazol-2-yl]amine], the melting point was 206 to 207 °C. Next, `CCNc1nc(-c2ccc(OC)cc2)c(-c2ccncc2)s1` [Reference Example 23-269, N-ethyl-[4-(4-methoxyphenyl)-5-(4-pyridyl)-1,3-thiazol-2-yl]amine]: 175 to 176 °C. Next, `Cc1ccc(-c2nc(-c3ccc(CSCc4ccc(-c5nc(-c6ccc(C)c(C)c6)c(-c6ccncc6)s5)cc4)cc3)sc2-c2ccncc2)cc1C` [Reference Example 23-326, 4-[4-(3,4-dimethylphenyl)-5-(4-pyridyl)-1,3-thiazol-2-yl]phenylmethylsulfide]: 159 to 161 °C; `O=S(=O)(Cc1ccc(-c2nc(-c3ccc(Cl)cc3)c(-c3ccncc3)s2)cc1)Cc1ccc(-c2nc(-c3ccc(Cl)cc3)c(-c3ccncc3)s2)cc1` [Reference Example 23-314, 4-[4-(4-chlorophenyl)-5-(4-pyridyl)-1,3-thiazol-2-yl]phenylmethylsulfone]: 202 to 204 °C; `O=C(Cc1ccccc1)Nc1nc(-c2ccccc2)c(-c2ccncc2)s1` [Reference Example 23-29, 2-phenyl-N-[4-phenyl-5-(4-pyridyl)-1,3-thiazol-2-yl]acetamide]: 233 to 234 °C. Then `Fc1ccc(-c2nc(-c3ccccc3)sc2-c2ccncc2)cc1` [Reference Example 44-1, 4-(4-fluorophenyl)-2-phenyl-5-(4-pyridyl)-1,3-thiazole], with 135 to 137 °C.

In turn, `Cc1ccc(-c2nc(N)sc2-c2ccncc2)cc1C` [Reference Example 23-125, [4-(3,4-dimethylphenyl)-5-(4-pyridyl)-1,3-thiazol-2-yl]amine] came in with a melting point of 248 to 250 °C. Next, `Nc1nc(-c2ccc(Cl)cc2)c(-c2ccncc2)s1` [Reference Example 23-61, [4-(4-chlorophenyl)-5-(4-pyridyl)-1,3-thiazol-2-yl]amine]: above 300 °C. Then `CC(=O)Nc1nc(-c2cccc(C)c2)c(-c2ccncc2)s1` [Reference Example 23-51, N-[4-(3-methylphenyl)-5-(4-pyridyl)-1,3-thiazol-2-yl]acetamide], with 287 to 289 °C; and `CCCNc1nc(-c2cc(C)cc(C)c2)c(-c2ccncc2)s1` [Reference Example 23-276, N-propyl-[4-(3,5-dimethylphenyl)-5-(4-pyridyl)-1,3-thiazol-2-yl]amine], with 177 to 180 °C; and `Cc1cc(C)cc(-c2nc(NC(=O)c3cccc(C(=O)O)c3)sc2-c2ccncc2)c1` [Reference Example 23-342, 3-[[[4-(3,5-dimethylphenyl)-5-(4-pyridyl)-1,3-thiazol-2-yl]amino]carbonyl]benzoic acid], with 350 to 353 °C. Then `CCCNc1nc(-c2ccc(OC)cc2)c(-c2ccncc2)s1` [Reference Example 23-290, N-propyl-[4-(4-methoxyphenyl)-5-(4-pyridyl)-1,3-thiazol-2-yl]amine], with 141 to 142 °C; and `COc1ccc(-c2nc(NC(=O)CO)sc2-c2ccncc2)cc1` [Reference Example 23-329, 2-hydroxy-N-[4-(4-methoxyphenyl)-5-(4-pyridyl)-1,3-thiazol-2-yl]acetamide], with 228 to 230 °C; and `COc1ccc(-c2nc(NC(=O)C(C)O)sc2-c2ccncc2)cc1` (centres unmarked) [Reference Example 23-325, 2-hydroxy-N-[4-(4-methoxyphenyl)-5-(4-pyridyl)-1,3-thiazol-2-yl]propionamide], with 221 to 222 °C. Regarding `Cc1ccc(-c2nc(-c3ccc(C[S+]([O-])Cc4ccc(-c5nc(-c6ccc(C)c(C)c6)c(-c6ccncc6)s5)cc4)cc3)sc2-c2ccncc2)cc1C` [Reference Example 23-327, 4-[4-(3,4-dimethylphenyl)-5-(4-pyridyl)-1,3-thiazol-2-yl]phenylmethylsulfoxide], the melting point was in the range of 161 to 164 °C. For the compound `Cc1cc(C)cc(-c2nc(NC(=O)c3ccc(C(=O)O)cc3)sc2-c2ccncc2)c1` [Reference Example 23-337, 4-[[[4-(3,5-dimethylphenyl)-5-(4-pyridyl)-1,3-thiazol-2-yl]amino]carbonyl]benzoic acid], the melting point lay within 347 to 349 °C. Then `CCC(=O)Nc1nc(-c2cccc(C)c2)c(-c2ccncc2)s1` [Reference Example 23-52, N-[4-(3-methylphenyl)-5-(4-pyridyl)-1,3-thiazol-2-yl]propionamide], with 258 to 260 °C; and `Nc1nc(-c2cccc(Cl)c2)c(-c2ccncc2)s1` [Reference Example 23-59, [4-(3-chlorophenyl)-5-(4-pyridyl)-1,3-thiazol-2-yl]amine], with 256 to 258 °C; and `Cc1cc(C)cc(-c2nc(NC(=O)Nc3ccccc3)sc2-c2ccncc2)c1` [Reference Example 23-315, N-[4-(3,5-dimethylphenyl)-5-(4-pyridyl)-1,3-thiazol-2-yl]-N′-phenylurea], with 167 to 169 °C.

Consider `CNc1nc(-c2ccccc2)c(-c2ccncc2)s1` [Reference Example 13-47, N-methyl [4-phenyl-5-(4-pyridyl)-1,3-thiazol-2-yl]amine], for which the melting point was in the range of 191 to 192 °C. Then `O=C(CCc1ccccc1)Nc1nc(-c2ccccc2)c(-c2ccncc2)s1` [Reference Example 23-30, 3-phenyl-N-[4-phenyl-5-(4-pyridyl)-1,3-thiazol-2-yl]propionamide], with 214 to 216 °C. Next, `CCC(=O)Nc1nc(-c2cccc(Cl)c2)c(-c2ccncc2)s1` [Reference Example 23-50, N-[4-(3-chlorophenyl)-5-(4-pyridyl)-1,3-thiazol-2-yl]propionamide]: 289 to 290 °C; `Cc1ccc(-c2nc(-c3ccc(CS(=O)(=O)Cc4ccc(-c5nc(-c6ccc(C)c(C)c6)c(-c6ccncc6)s5)cc4)cc3)sc2-c2ccncc2)cc1C` [Reference Example 23-328, 4-[4-(3,4-dimethylphenyl)-5-(4-pyridyl)-1,3-thiazol-2-yl]phenylmethylsulfone]: 194 to 196 °C.

One may read the melting point as the temperature, or range, at which the solid turns liquid.
